Data: ChEMBL document CHEMBL1201862, “PubChem BioAssay data set” (2004)
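Where inhibition never reached the appropriate level, the endpoint shown equals the highest concentration tested. Otherwise, values were interpolated linearly from a five-concentration, 48-hour dose response in 96-well plates. GI50 marks 50% less growth.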 Active and inactive are the calls of the source. No stated cut-off is given here; in the data, active = GI50 up to about 1.1 µM and inactive = higher.

Experiments:
Test in all cases: NCI anticancer screen, dose series, 48 h
A498 = system: A498
CAKI-1 = system: CAKI-1
COLO 205 = system: COLO 205
HCT-15 = system: HCT-15
HOP-62 = system: HOP-62
Malme-3M = system: Malme-3M
NCI-H226 = system: NCI-H226
NCI-H23 = system: NCI-H23
NCI-H460 = system: NCI-H460
OVCAR-3 = system: OVCAR-3
SF-268 = system: SF-268
SK-MEL-2 = system: SK-MEL-2
SK-MEL-5 = system: SK-MEL-5
SNB-19 = system: SNB-19
SW-620 = system: SW-620
TK-10 = system: TK-10
UACC-62 = system: UACC-62
UO-31 = system: UO-31
MDA-MB-435 = system: MDA-MB-435
PC-3 = system: PC-3

| Compound | GI50 (A498) | GI50 (CAKI-1) | GI50 (COLO 205) | GI50 (HCT-15) [µM] | GI50 (HOP-62) | GI50 (Malme-3M) | GI50 (NCI-H226) | GI50 (NCI-H23) | GI50 (NCI-H460) | GI50 (OVCAR-3) | GI50 (SF-268) | GI50 (SK-MEL-2) | GI50 (SK-MEL-5) | GI50 (SNB-19) | GI50 (SW-620) | GI50 (TK-10) | GI50 (UACC-62) | GI50 (UO-31) | GI50 (MDA-MB-435) | GI50 (PC-3) |
| --- | --- | --- | --- | --- | --- | --- | --- | --- | --- | --- | --- | --- | --- | --- | --- | --- | --- | --- | --- | --- |
| NCCCCNCCCNC(=O)c1nc(-c2csc(CCN)n2)sc1Cl | > 100 µM (inactive) | > 100 µM (inactive) | > 100 µM (inactive) | > 100 | > 100 µM (inactive) | > 100 µM (inactive) | > 100 µM (inactive) | > 100 µM (inactive) | > 100 µM (inactive) | > 100 µM (inactive) | 62.7 µM (inactive) | > 100 µM (inactive) | > 100 µM (inactive) | > 100 µM (inactive) | > 100 µM (inactive) | > 100 µM (inactive) | > 100 µM (inactive) | > 100 µM (inactive) | – | – |
| COC(=O)C1=C(C[S+]([O-])c2ccccc2[N+](=O)[O-])ON(C)C1c1ccccc1 (stereo not given) | > 100 µM (inactive) | 45.7 µM (inactive) | 43.7 µM (inactive) | 22.5 | > 100 µM (inactive) | > 100 µM (inactive) | 37.8 µM (inactive) | > 100 µM (inactive) | > 100 µM (inactive) | 40.5 µM (inactive) | 27.5 µM (inactive) | 62.1 µM (inactive) | 38.8 µM (inactive) | > 100 µM (inactive) | 25.4 µM (inactive) | 35.7 µM (inactive) | 28.8 µM (inactive) | 46.8 µM (inactive) | – | – |
| C[n+]1c2ccccc2c(NC(CCCNC(=N)N)C(=O)O)c2ccccc21 (stereo not given) | > 100 µM (inactive) | > 100 µM (inactive) | > 100 µM (inactive) | > 100 | > 100 µM (inactive) | > 100 µM (inactive) | > 100 µM (inactive) | > 100 µM (inactive) | > 100 µM (inactive) | > 100 µM (inactive) | > 100 µM (inactive) | > 100 µM (inactive) | 85.9 µM (inactive) | > 100 µM (inactive) | > 100 µM (inactive) | > 100 µM (inactive) | > 100 µM (inactive) | 75.2 µM (inactive) | – | – |
| COc1ccc2[nH]c3c(c2c1)[C@H]1CCC(C(C)(C)C)C[C@H]1[C@H]1C(=O)N(c2ccccc2)C(=O)[C@@H]31 (stereo not given in full) | 14.7 µM (inactive) | 12 µM (inactive) | 11.4 µM (inactive) | > 100 | 11.1 µM (inactive) | 15.8 µM (inactive) | 27.6 µM (inactive) | 12.1 µM (inactive) | 6.9 µM (inactive) | 23.3 µM (inactive) | 13.1 µM (inactive) | 20 µM (inactive) | > 47.6 µM (inactive) | 16.3 µM (inactive) | 20.2 µM (inactive) | 22.6 µM (inactive) | 31 µM (inactive) | 24 µM (inactive) | – | – |
| CC1CC(=O)N2CCCNC2=C1C#N (stereo not given) | – | > 100 µM (inactive) | > 100 µM (inactive) | > 100 | > 100 µM (inactive) | > 100 µM (inactive) | > 100 µM (inactive) | > 100 µM (inactive) | > 100 µM (inactive) | > 100 µM (inactive) | > 100 µM (inactive) | > 100 µM (inactive) | > 100 µM (inactive) | > 100 µM (inactive) | > 100 µM (inactive) | > 100 µM (inactive) | > 100 µM (inactive) | > 100 µM (inactive) | > 100 µM (inactive) | > 100 µM (inactive) |
| CP(C)(=S)P(C)(C)=S | – | > 100 µM (inactive) | > 100 µM (inactive) | > 100 | > 100 µM (inactive) | > 100 µM (inactive) | > 100 µM (inactive) | > 100 µM (inactive) | > 100 µM (inactive) | – | > 100 µM (inactive) | > 100 µM (inactive) | > 100 µM (inactive) | > 100 µM (inactive) | > 100 µM (inactive) | > 100 µM (inactive) | > 100 µM (inactive) | > 100 µM (inactive) | – | > 100 µM (inactive) |
| CC/C(SC)=[N+](\C)[O-] | > 100 µM (inactive) | > 100 µM (inactive) | > 44.8 µM (inactive) | 57.9 | > 100 µM (inactive) | > 100 µM (inactive) | > 100 µM (inactive) | > 100 µM (inactive) | > 100 µM (inactive) | > 100 µM (inactive) | > 100 µM (inactive) | > 100 µM (inactive) | > 100 µM (inactive) | > 100 µM (inactive) | > 100 µM (inactive) | > 100 µM (inactive) | > 100 µM (inactive) | > 100 µM (inactive) | – | – |
| O=C1c2ccccc2C(=O)c2nc3c(O)cccc3cc21 | 25.9 µM (inactive) | 93.1 µM (inactive) | 23.8 µM (inactive) | 13 | 38.9 µM (inactive) | 53.5 µM (inactive) | 74.5 µM (inactive) | > 100 µM (inactive) | 9.08 µM (inactive) | 1.87 µM (inactive) | 7.96 µM (inactive) | > 100 µM (inactive) | 3.6 µM (inactive) | 14.7 µM (inactive) | 3.57 µM (inactive) | 74.5 µM (inactive) | 37.3 µM (inactive) | 14.5 µM (inactive) | – | – |
| CC1=NOC(=O)/C1=C/c1ccc([N+](=O)[O-])cc1 | > 100 µM (inactive) | > 100 µM (inactive) | > 100 µM (inactive) | > 100 | > 100 µM (inactive) | > 100 µM (inactive) | > 100 µM (inactive) | > 100 µM (inactive) | > 100 µM (inactive) | > 100 µM (inactive) | > 100 µM (inactive) | > 100 µM (inactive) | > 100 µM (inactive) | > 100 µM (inactive) | 59 µM (inactive) | > 100 µM (inactive) | > 100 µM (inactive) | > 100 µM (inactive) | – | – |
| N#C/C(=C/C=C/c1ccco1)C(N)=O | – | > 10 µM (inactive) | > 10 µM (inactive) | > 10 | > 10 µM (inactive) | > 10 µM (inactive) | > 10 µM (inactive) | – | > 10 µM (inactive) | > 10 µM (inactive) | > 10 µM (inactive) | > 10 µM (inactive) | > 10 µM (inactive) | – | > 10 µM (inactive) | > 10 µM (inactive) | – | > 10 µM (inactive) | > 10 µM (inactive) | > 10 µM (inactive) |
| CCN(CC)CCOC(NC(C)=O)(c1ccccc1)c1ccccc1 | > 100 µM (inactive) | – | > 100 µM (inactive) | > 100 | > 100 µM (inactive) | > 100 µM (inactive) | > 100 µM (inactive) | > 100 µM (inactive) | > 100 µM (inactive) | – | > 100 µM (inactive) | – | > 100 µM (inactive) | > 100 µM (inactive) | > 100 µM (inactive) | > 100 µM (inactive) | > 100 µM (inactive) | > 100 µM (inactive) | > 100 µM (inactive) | – |
| COC(=O)c1cc(/C=C/C(=O)Cc2ccccc2)cn1S(=O)(=O)c1ccccc1 | – | > 100 µM (inactive) | > 100 µM (inactive) | 7.38 | > 100 µM (inactive) | > 100 µM (inactive) | – | > 100 µM (inactive) | > 100 µM (inactive) | > 100 µM (inactive) | > 100 µM (inactive) | > 100 µM (inactive) | > 100 µM (inactive) | > 100 µM (inactive) | – | > 100 µM (inactive) | > 100 µM (inactive) | > 100 µM (inactive) | – | > 100 µM (inactive) |
| C/C(=N\Nc1nc2ccccc2[nH]1)c1ccc2ccccc2n1 | – | 0.339 µM (active) | 3.15 µM (inactive) | 1.29 | 2.78 µM (inactive) | 2.4 µM (inactive) | – | 3.89 µM (inactive) | 2.25 µM (inactive) | 0.592 µM (active) | 1.97 µM (inactive) | 1.67 µM (inactive) | 1.46 µM (inactive) | 2.75 µM (inactive) | 3.58 µM (inactive) | 3.04 µM (inactive) | 2.6 µM (inactive) | 1.06 µM (active) | 4.29 µM (inactive) | 1.44 µM (inactive) |
| Nc1cc(CO)cc(Nc2nc3ccc(Cl)cc3c3[nH]c4ccccc4c23)c1 | – | 2.69 µM (inactive) | 2.29 µM (inactive) | 3.92 | 7.19 µM (inactive) | 5.27 µM (inactive) | – | 6.28 µM (inactive) | 2.2 µM (inactive) | – | 2.86 µM (inactive) | 4.27 µM (inactive) | – | 4.32 µM (inactive) | 4.44 µM (inactive) | 6.05 µM (inactive) | 1.85 µM (inactive) | 2.9 µM (inactive) | 3.85 µM (inactive) | 4.92 µM (inactive) |
| Nc1ccn(CC(CO)CC(c2ccccc2)P(=O)(O)O)c(=O)n1 (stereo not given) | > 100 µM (inactive) | > 100 µM (inactive) | > 100 µM (inactive) | > 100 | > 100 µM (inactive) | > 100 µM (inactive) | > 100 µM (inactive) | > 100 µM (inactive) | > 100 µM (inactive) | > 100 µM (inactive) | > 100 µM (inactive) | > 100 µM (inactive) | > 100 µM (inactive) | > 100 µM (inactive) | > 100 µM (inactive) | > 100 µM (inactive) | > 100 µM (inactive) | > 100 µM (inactive) | – | – |
| O=C1C2C3C=CC(C2C(=O)N1CO)C1C2C(=O)N(CO)C(=O)C2C31 (stereo not given) | > 100 µM (inactive) | > 100 µM (inactive) | > 48.2 µM (inactive) | 37 | > 100 µM (inactive) | > 100 µM (inactive) | > 100 µM (inactive) | > 100 µM (inactive) | 27.9 µM (inactive) | > 92.9 µM (inactive) | > 50.4 µM (inactive) | > 100 µM (inactive) | > 83 µM (inactive) | > 100 µM (inactive) | 33.5 µM (inactive) | > 100 µM (inactive) | > 100 µM (inactive) | > 100 µM (inactive) | – | – |
